In data set [1] the test system is Guinea-pig ileum. Nature of the data set: Guinea-pig ileum induced contractions. The following applies: for Type of activity: guinea-pig ileum; for IC50: inhibiting acetylcholine-induced contractions of the ileum. The text has this:
Guinea-pig ileum induced contractions
*This dose is the IC50 for inhibiting acetylcholineinduced
contractions of the ileum.

For data set [2], the target named is central muscarinic receptors (M1 and M2). It counts as binding, rat.
Data set [3] in a line: in vivo. The following applies: mouse, iv.
In data set [4] the test system is Guinea-pig ileum. As to the kind of experiment: Guinea-pig ileum induced contractions. The following applies: ileum contraction.
Data set [5] in a line: Signs observed in rats after oral dose of 100 mg./kg. It counts as in vivo. The following applies: 100 mg./kg. oral.
Test in data set [6]: not given
The source holds these as a separate data set.

Data set [7] concerns the target central muscarinic receptors (M1) (Rattus norvegicus, UniProt P08482). As to the kind of experiment: biochemical. It counts as binding. Further details: IC50^1 :IC50^2: unit not given beside the values.
A short description of data set [8]: in vivo. The following applies: mouse, po.
Data set [9] is described as follows: Hypothermia-inducing activity in rats. The following applies: AF102B at 80 mg./kg. p.o. and 60 mg./kg. i.p., oxotremorine 3.2 mg./kg. p.o. or 1.2 mg./kg. i.p.

The text below walks through data of patent US4855290A (priority 1985, dated 1989).

Molecules are shown by their SMILES. Entries after “also recorded” stand apart in the source; their conditions may differ. Like-named read-outs stand apart in the source and are kept apart here. A value given as a limit tells only on which side of the number the result lay.

central muscarinic receptors (M1), sequence (P08482 whole entry): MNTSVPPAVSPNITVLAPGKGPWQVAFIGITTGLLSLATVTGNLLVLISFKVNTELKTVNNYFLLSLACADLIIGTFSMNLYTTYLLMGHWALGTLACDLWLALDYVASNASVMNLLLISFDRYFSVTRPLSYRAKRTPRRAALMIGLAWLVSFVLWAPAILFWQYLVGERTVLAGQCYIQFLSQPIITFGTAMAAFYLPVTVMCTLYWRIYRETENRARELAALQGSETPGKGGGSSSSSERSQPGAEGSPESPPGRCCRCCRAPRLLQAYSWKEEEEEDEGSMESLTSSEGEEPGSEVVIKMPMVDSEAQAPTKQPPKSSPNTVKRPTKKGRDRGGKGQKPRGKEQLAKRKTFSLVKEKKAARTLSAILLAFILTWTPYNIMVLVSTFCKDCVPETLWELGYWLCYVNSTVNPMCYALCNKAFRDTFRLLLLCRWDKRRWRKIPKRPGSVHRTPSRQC

The term IC50 denotes the concentration at which inhibition is half-maximal. `CC1(c2ccccc2)OC2(CS1)CN1CCC2CC1` (stereo not shown) [(Ic), 2-methyl-2-phenylspiro(1,3-oxathiolane-5,3')quinuclidine]: in the data set with Guinea-pig ileum [1], the Type of activity entry was “antagonist” and the half-inhibitory concentration (IC50) was 2000 nM.
For orientation: LD50 means the dose expected to kill half of the subjects tested. As usually defined, the EC50 is the midpoint of the concentration-response curve. As to `C[C@@H]1O[C@]2(CS1)CN1CCC2CC1` (relative stereo) [AF102A], the IC50 turned out to be 70000 nM in data set [2] (read-out: IC50^2 for displacement of [^3 H]-QNB) and 30000 nM in data set [7]. Moreover, the LD50 was determined as 40.4 mg/kg in the data set “in vivo [3]” and 102 mg/kg in the data set “in vivo [8]”. The EC50 with Guinea-pig ileum [4] was > 10000 nM. Besides, the Mortality was 0/5 (mice, 78 mg./kg. per os); 2/5 (mice, 90 mg./kg. per os); 2/5 (mice, 104 mg./kg. per os); 4/5 (mice, 120 mg./kg. per os); 5/5 (mice, 139 mg./kg. per os); 5/5 (mice, 160 mg./kg. per os). Further, the Mortality is recorded as 2/6 in data set [6] (mice, 36.0 mg./kg. i.v.); 3/6 in [6] (mice, 37.9 mg./kg. i.v.); 2/6 in data set [6] (mice, 40.0 mg./kg. i.v.); 4/6 in data set [6] (mice, 42.5 mg./kg. i.v.); 6/6 in data set [6] (mice, 45.0 mg./kg. i.v.). Under “mice, approximate LD50 doses, oral”, the “time of death after oral administration” value lay within 10 to 15 min. In addition, for the setting “mice, inferred from i.v./oral LD50 ratio”, the “absorption by the enteric route” value was “efficient, rapid and apparently unaltered absorption”. The “effects considered characteristic of parasympatho- or cholinomimetic activity” value (mouse, in vivo) was “none of the test animals exhibited effects considered characteristic of parasympatho- or cholinomimetic activity”. For the same compound, the “onset of severe tremors after oral administration” value (mouse, in vivo, po) was 2 to 3 min. In data set [5], the “Signs observed in rats” value is “spontaneous motor activity was slightly reduced; also recorded: mydriasis, with pupillary size being about three times that seen in controls; also recorded: sudden onset of a brief clonic convulsive seizure which 5 mins. later changed into periodic head twitching and tremors; also recorded: animals appeared somnolent, accompanied by partial loss of righting reflex, dyspnoeic and cyanotic, with very slight salivation and lachrymation; also recorded: full recovery occurred after several hours”. The mortality in rats result in data set [5] is “one animal, out of the group of three, which was found dead”. The time found dead in [5] (post-administration) was determined as 40 min. The “time of death after intravenous injection” value in data set [6] (mice, approximate LD50 doses, iv) was “about 30 secs”. In addition, the “onset of severe tremors after intravenous administration” value in [6] (mouse, in vivo, iv) stood at 10 s. The “IC50^1 :IC50^2” value in [7] (PNZ:QNB displacement ratio) stood at 0.43. For the same compound, the “muscarinic agonist activity (TABLES 1 and 2)” value in the data set on Guinea-pig ileum [1] (binding and ileum) is “almost one order of magnitude less active”. Further, the Type of activity entry in the data set with Guinea-pig ileum [1] is “agonist”.
Turning to `O=C1CCCN1CC#CCN1CCCC1` [oxotremorine, reference compound], the EC50 in data set [2] (summary table, read-out: EC50, [^3 H]--QNB-binding) amounted to 3000 nM. Moreover, in data set [7], it took 800 nM to reach a half-maximal effect (EC50), the half-inhibitory concentration (IC50) amounted to 800 nM and the “IC50^1 :IC50^2” value was determined as 0.27. The cholinomimetic manifestation entry in [9] was “full cholinomimetic syndrome associated with tonic-clonic convulsions”.
`c1ccc(C(c2ccccc2)C2OC3(CS2)CN2CCC3CC2)cc1` (stereo not shown) [(Ib), 2-diphenylmethylspiro(1,3-oxathiolane-5,3')quinuclidine]: in the data set with Guinea-pig ileum [1], the Type of activity entry is “antagonist” and half-maximal inhibition (IC50) was put at 20 nM.
In the data set with Guinea-pig ileum [4], `C[C@@H]1OCC2(CN3CCC2CC3)O1` (stereo in doubt) [AF30, cis-2-methylspiro(1,3-dioxolane-4,3')quinuclidine, reference compound] gave a concentration giving a half-maximal response (EC50) of 4000 nM. Besides, for the setting “mice, oral or iv, tremors, salivation, lachrymation, diarrhoea, miosis”, the “effects considered characteristic of parasympatho- or cholinomimetic activity” value is “did exhibit such side effects”. For the same compound, in the data set on Guinea-pig ileum [1], the Type of activity entry was “agonist”.
